Reference: patent US5753516A, “Screening method for ligands of the EBI-1 receptor” (priority 1995, dated 1998)

Assays:
NALM 6 cells = test: Migration (chemotaxis) of NALM 6 pre-B ALL cells; assay type: cell-based, human; conditions: for cell migration (cell counts): NALM 6, peptide 100 nM, spontaneous locomotion 2190; for concentration inducing migration: NALM 6 and LAZ 221; for effect on migration of pre-B ALL cells: NALM 6 and LAZ 221 cells
Jurkat cells [1] = tested on: Jurkat cells
LAZ 221 cells = test: Migration (chemotaxis) of LAZ 221 pre-B ALL cells; assay type: cell-based, human; conditions: LAZ 221, peptide 100 nM; spontaneous locomotion 1886
LAZ 388 cells = test: Migration (chemotaxis) of LAZ 388 EBV-transformed B cells; assay type: cell-based, human; conditions: LAZ 388, peptide 100 nM; spontaneous locomotion 1938
human T cells [2] = conditions: Heagy et al., 1990; cited from earlier work
COS (Vector Control) = test: cAMP accumulation in COS cells (vector control); assay type: cell-based, monkey; conditions: COS (Vector Control); MET-ENK 0.01 nM, naloxone 10 μM, forskolin 0.1 μM; controls 40.2 and 38.8
EBI1 = target: T1, EBI1 (Homo sapiens, UniProt P32248)
T1 sequence (P32248 25-378): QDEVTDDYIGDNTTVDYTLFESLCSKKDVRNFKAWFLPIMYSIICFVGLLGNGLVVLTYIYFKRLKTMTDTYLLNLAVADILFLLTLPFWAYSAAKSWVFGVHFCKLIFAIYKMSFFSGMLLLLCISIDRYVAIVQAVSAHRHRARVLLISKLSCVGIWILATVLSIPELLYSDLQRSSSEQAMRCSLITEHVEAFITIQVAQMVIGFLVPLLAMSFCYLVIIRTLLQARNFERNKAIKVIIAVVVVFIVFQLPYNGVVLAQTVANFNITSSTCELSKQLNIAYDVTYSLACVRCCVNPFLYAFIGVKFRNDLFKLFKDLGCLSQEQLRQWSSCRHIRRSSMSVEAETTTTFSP

human T cells [3] = test: Migration of human peripheral blood T cells; assay type: cell-based
leukocytes = conditions: Lu et al., 1960; cited from earlier work
[4] = tested on: lymphocytes and macrophages; conditions: animals; cited from earlier work
Jurkat cells [5] = test: [Ca^2+ ]i response of Jurkat cells (Indo-1, flow cytometry); assay type: cell-based, human
Protocol: FIG. 14, Panel A and B. Methionine enkephalin and opiate receptor agonists selective for […] stimulate transmembrane signaling in Jurkat cells. Cells were labeled with Indo-1, washed twice in serum-free medium and held at 4° C. until analyzed. Indo-1 fluorescence was measured using flow cytometry as previously described (Heagy et al., 1992; Ledbetter et al., 1987; Chang et al., 1989; Rabinovitch et al., 1986). The fluorescence for nonstimulated cells (measured in medium, alone) was arbitrarily set at 1.0. Data are presented as per cent increase in the response [(r-baseline) x 100%]. Baseline [Ca^2+ ]i value measured for Jurkat cells (n=4) was 80±40 nM. Baseline Panel A, Jurkat cell response to MET-ENK (0.1 nM, 10 nM and 1 μM) and to the d- selective agonist Dermenkephalin (10 nM). Panel B, Jurkat cell response to the d- selective agonist (D-Pen ^2,5, p Cl-Phe^4)-ENK (0.1 nM. 10 nM. 1 μM).
The inventors (Heagy et al., 1992) have previously shown that when applied to NALM 6 cells the κ-1 agonist U69,953 stimulates a rapid increase in [Ca^2+ ]i. […] In order to determine whether the sites the inventors have identified using the δ-selective agonists also elicit Ca^2+ responses the inventors measured the effects of opioid peptides and δ-selective agonists on the calcium response. […] These studies provide evidence that Jurkat cells have functional δ opiate receptor sites which stimulate transmembrane signaling via rapid increases in [Ca^2+ ]i.

[6] = target: EBI1, novel lymphocyte R7G opioid binding protein (human); test: radioligand filtration assay on membranes of EBI1-transfected COS cells; nonspecific binding with 50 µM naloxone
[7] = target: Jurkat cells (T cell leukemia cell line), enkephalin/opiate binding sites not defined as a molecule; test: flow cytometry of MET-ENK-FITC on Jurkat cells, two-site model, high affinity site
[8] = target: Jurkat cells (T cell leukemia cell line), enkephalin/opiate binding sites not defined as a molecule; test: flow cytometry of MET-ENK-FITC on Jurkat cells, two-site model, low affinity site
[9] = target: NALM 6 cells (pre-B acute lymphoblastic leukemia cell line), enkephalin/opiate binding sites not defined as a molecule; test: flow cytometry of MET-ENK-FITC on NALM 6 cells, two-site model, high affinity site
[10] = target: NALM 6 cells (pre-B acute lymphoblastic leukemia cell line), enkephalin/opiate binding sites not defined as a molecule; test: flow cytometry of MET-ENK-FITC on NALM 6 cells, two-site model, low affinity site

## CC(C)C[C@@H](NC(=O)[C@H](Cc1ccccc1)NC(=O)CNC(=O)[C@@H](C)NC(=O)[C@@H](N)Cc1ccc(O)cc1)C(=O)O [DADLE, [D-Ala^2,D-Leu5]-enkephalin]
NALM 6 cells
  cell migration (cell counts): 6240 cell counts
  concentration inducing migration: ≤ 10^-10 M
  effect on migration of pre-B ALL cells: enhanced, albeit modestly, the migration of NALM 6 and LAZ 221 cells
Jurkat cells [1]
  specific binding, % of total: 50-60%
LAZ 221 cells
  cell migration (cell counts): 4405 cell counts
LAZ 388 cells
  cell migration (cell counts): 2283 cell counts
Human T cells [2]
  human T cell migration: potent stimulants for the migration of isolated human T cells

## C[C@@H](NC(=O)[C@@H](N)Cc1ccc(O)cc1)C(=O)NCC(=O)N(C)[C@@H](Cc1ccccc1)C(=O)NCCO [DAMGO, [D-Ala^2, Me-Phe^4, Gly(ol)^5]-enkephalin]
NALM 6 cells
  cell migration (cell counts): 5070 cell counts
  concentration inducing migration: ≤ 10^-10 M
  effect on migration of pre-B ALL cells: enhanced, albeit modestly, the migration of NALM 6 and LAZ 221 cells
LAZ 221 cells
  cell migration (cell counts): 4602 cell counts
LAZ 388 cells
  cell migration (cell counts): 2043 cell counts
Human T cells [2]
  human T cell migration: potent stimulants for the migration of isolated human T cells

## CSCC[C@H](NC=O)C(=O)N[C@@H](CC(C)C)C(=O)N[C@@H](Cc1ccccc1)C(=O)O [FMLP]
NALM 6 cells
  cell migration (cell counts): 3198 cell counts
  effect on migration of pre-B ALL cells: had no effect on the migration of the pre-B ALL cells
LAZ 221 cells
  cell migration (cell counts): 2906 cell counts
LAZ 388 cells
  cell migration (cell counts): 1914 cell counts

## C=C[C@@]1(C)CC(=O)[C@]2(O)[C@@]3(C)[C@@H](O)CCC(C)(C)[C@@H]3[C@H](O)[C@H](OC(C)=O)[C@@]2(C)O1 [Forskolin]
COS (Vector Control)
  cAMP: 130.5 fmoles/cell × 10^3
EBI1
  cAMP: 234.8 fmoles/cell × 10^3

## CC(C)C[C@H](NC(=O)[C@H](Cc1ccccc1)NC(=O)CNC(=O)CNC(=O)[C@@H](N)Cc1ccc(O)cc1)C(=O)O [LEU-ENK]
Human T cells [3]
  human lymphocyte / T cell migration: stimulate human lymphocyte migration
Human T cells [3]; human peripheral blood T cells
  lowest concentration at which T cell migration was detectable: 0.1 pM

## CN1CC[C@]23c4c5ccc(O)c4O[C@H]2[C@@H](O)C=C[C@H]3[C@H]1C5 [morphine]
leukocytes
  leukocyte changes in rabbits: caused a leukocytosis in parallel with a depletion of lymphocyte blasts and other hematopoietic precursors in the bone marrow
[4]
  lymphocyte trafficking in vivo: enhance lymphocyte trafficking

## (D-Pen^2,5, p-Cl-Phe^4)-ENK
Jurkat cells [5]
  [Ca^2+ ]i response: stimulated the Ca^2+ response
  concentration eliciting [Ca^2+ ]i response: 10^-8 to 10^-6 M

## DPDPE ([D-Pen2,5]enkephalin), delta-selective opiate receptor agonist (peptide)
[6]
  Kd: 0.2 nM

## fluorescein derivative of methionine enkephalin (MET-ENK-FITC) (peptide)
[7]
  Kd: 1.36 nM
[8]
  Kd: 181 nM
[9]
  Kd: 1.01 nM
[10]
  Kd: 318 nM
